Data published in patent US20180263985A1, “MODULATORS OF TOLL-LIKE RECEPTORS FOR THE TREATMENT OF HIV” (Gilead Sciences, Inc., priority 2015, published 2018).
Several values for one entry are separate records, joined by “and”; a condition that tells them apart may be missing. Identical values can stand only once.

Assays:
[1] = tested on: PBMC cultures from HIV-1 infected subjects on cART; assay: Induced HIV-1 expression in PBMC cultures, HIV-1 RNA in supernatant after 4 days (COBAS TaqMan HIV-1 Test); assay type: cell-based, human; conditions: for N with ≥2-Fold-Activation: subjects; for Fold HIV-1 Activation: vs DMSO; for Geometric Mean with ≥2-Fold-Activation / Range with ≥2-Fold-Activation: N = 5
Procedure: In some experiments, IL-15, the TLR8 modulating compound of Example 15 or the combination of IL-15 and Example 15 were used at the indicated concentrations (Table 4). The cultures were maintained in the presence of antivirals (elvitegravir and efavirenz at 100 nM each) to prevent viral spread and amplification in order to measure the quantity of virus produced (latency reversal) by the TLR8 modulating compounds. At the end of the incubation period, cell-free culture supernatants were harvested and HIV-1 RNA levels were quantified by the COBAS® AmpliPrep/COBAS®TaqMan HIV-1 Test, v2.0 (Roche).
In each table, fold-activation is calculated as a ratio of HIV-1 RNA copies per ml of cell culture supernatants from TLR8 agonist treated samples and DMSO treated controls. Geometric mean fold-activation from three independent incubation samples for each condition of each subject's PBMCs. Values in bold indicate ≥2-fold HIV activation.
To assess if the latency reversal induced by TLR8 agonism could further potentiate latency reversal by a separate mechanisms, we treated cells as described above with IL-15, Example 15, or a combination of IL-15 and Example 15 (Table 4).

[2] = tested on: HIV-specific polyfunctional CD8 T cells; assay: Induced HIV-specific polyfunctional CD8+ T cells in PBMC cultures from HIV-1 infected subjects on cART; assay type: cell-based, human; conditions: for Median HIV-specific polyfunctional CD8 T cells (% proliferating CD8+ cells double positive for IFN-γ and TNF-α): HIV peptide pool, 5 subjects
[3] = tested on: serum cytokines and chemokines; assay: Induction of cytokines and chemokines in serum of orally dosed Rhesus macaques (Luminex); assay type: in vivo
Procedure: The TLR8 modulator of Example 65 was formulated in 2% ethanol, 40% polyethylene glycol 300, and 58% 0.01 N hydrochloric acid. Oral solutions of formulations were prepared by dissolving a sufficient amount of the compound in the 2% ethanol, 40% polyethylene glycol 300, and 58% 0.01 N hydrochloric acid vehicle to arrive at 0.5, 1.5, or 5 mg/ml of Example 65. Rhesus macaques were dosed orally with 1.2 to 2 mls/kg to achieve dose levels of 1, 3, 6, or 10 mg/kg Example 65. Blood samples were collected at 2, 4, 8, 12, 24 and 48 hours postdose (FIG. 5) and allowed to clot under ambient conditions prior to centrifugation to obtain serum. The indicated cytokines and chemokines were quantified in serum with a multiplexed Luminex® assay following the manufacturer's instructions (Life Technologies). […] At 10 and 6 mg/kg, IL-12, IL-1RA and MCP-1 peaked near 10 ng/ml and IL-6 peaked at 1 ng/ml.

## IL-15: interleukin-15, used at 1 nM as a separate latency reversal stimulus
[1]; IL-15 1 nM
  Subjects with ≥2-Fold-Activation (%): 66%
  N with ≥2-Fold-Activation: 4 of 6
[1]; IL-15 1 nM, N = 6
  Fold HIV-1 Activation, Geometric Mean: 2.9 fold
[1]; IL-15 1 nM, one value per subject (IDs 205-210)
  Fold HIV-1 Activation: 1.6 fold and 2.6 fold and 3.3 fold and 4.4 fold and 6.3 fold and 1.4 fold

## CCCCC(C)(CO)Nc1nc(N)nc2cc(F)cnc12 (stereo not drawn) [Example 98]
[2]; 100 nM
  Patients in whom increases in HIV-specific polyfunctional CD8 T cells were seen: 4 of 5
  Median HIV-specific polyfunctional CD8 T cells (% proliferating CD8+ cells double positive for IFN-γ and TNF-α): 0.93%
[2]; 1000 nM
  Patients in whom increases in HIV-specific polyfunctional CD8 T cells were seen: 4 of 5
  Median HIV-specific polyfunctional CD8 T cells (% proliferating CD8+ cells double positive for IFN-γ and TNF-α): 0.92%
[2]; 1000 nM with HIV specific peptide pool vs vehicle, p<0.05
  Fold increase of median HIV-specific polyfunctional CD8 T cells: 7.1 fold

## CCCC[C@](C)(CNC(C)=O)Nc1nc(N)nc2cc(Cl)cnc12 [Example 65]
[3]; oral 1, 3, 6, or 10 mg/kg
  Induction of cytokines associated with TLR8 activation (IL-12, IL-6, IL-1RA, MCP-1) in serum: induced in a dose-dependent manner
[3]; oral 10 and 6 mg/kg
  IL-1RA peak serum concentration: ~10 ng/mL
  IL-6 peak serum concentration: 1 ng/mL
  IL-12 peak serum concentration: ~10 ng/mL
  MCP-1 peak serum concentration: ~10 ng/mL
[3]; oral dosing
  Time of peak serum cytokine concentrations post-dose: 2 h

## CCC[C@@H](CO)Nc1nc(N)nc2cc(F)c(F)cc12 [Example 119, (S)-2-((2-amino-6,7-difluoroquinazolin-4-yl)amino)pentan-1-ol, reference compound]
[1]; 156 nM
  Subjects with ≥2-Fold-Activation (%): (67) %
  Geometric Mean with ≥2-Fold-Activation: 4.2 fold
  Range with ≥2-Fold-Activation: 3.6-4.9 fold
  N with ≥2-Fold-Activation: 2 of 3
[1]; 156 nM, one value per subject (IDs 151-155)
  Fold HIV-1 Activation: 3.6 fold and 4.9 fold and 0.4 fold
[1]; 625 nM
  Subjects with ≥2-Fold-Activation (%): (60) %
  Geometric Mean with ≥2-Fold-Activation: 4.1 fold
  Range with ≥2-Fold-Activation: 3.4-4.8 fold
  N with ≥2-Fold-Activation: 3 of 5
[1]; 625 nM, one value per subject (IDs 151-155)
  Fold HIV-1 Activation: 3.4 fold and 4.1 fold and 4.8 fold and 0.3 fold and 0.5 fold
[1]; 2,500 nM
  Subjects with ≥2-Fold-Activation (%): (100) %
  Geometric Mean with ≥2-Fold-Activation: 3.6 fold
  Range with ≥2-Fold-Activation: 2.2-5.2 fold
  N with ≥2-Fold-Activation: 5 of 5
[1]; 2,500 nM, one value per subject (IDs 151-155)
  Fold HIV-1 Activation: 4.1 fold and 4.2 fold and 3.2 fold and 5.2 fold and 2.2 fold
[1]; 156, 625, or 2500 nM
  Geometric Mean with ≥2-Fold-Activation: 4.1 fold
  Range with ≥2-Fold-Activation: 2.2-5.2 fold
  N with ≥2-Fold-Activation: 5 out of 5 and 5 of 5
